4 molecules from US8883835B2, “Plant disease controlling composition and method for controlling plant disease” (priority 2008, dated 2014) can be followed below.

This assay has as its system Sclerotinia sclerotiorum. The assay can be described thus: Controlling test against Sclerotinia sclerotiorum on cucumber by foliage spraying (Test Example 1). The assay is classed as in vivo. The note with it: single compound, 12° C. and high humidity for 6 days. The protocol:
A sand loam was filled into a plastic pot, and cucumber (Sagamihanjiro) was seeded, and grown in a greenhouse for 12 days. A flowable of the compound I, and an emulsifiable concentrate of any one of the compound II to the compound IV were diluted with water separately, and they were tank-mixed to prepare a tank mix solution containing the compound I and any one of the compounds II to IV at predetermined concentrations. The tank mix solution was subjected to foliage spraying so that it was sufficiently adhered to a leaf surface of the cucumber. After spraying, the plant was air-dried, and a PDA medium containing hyphae of Sclerotinia sclerotiorum was placed on the cucumber leaf surface. After seeding, this was placed under 12° C. and high humidity for 6 days, the controlling effect was investigated. Separately, for comparison, a flowable of the compound I, or an emulsifiable concentrate of any one compound of the compound II to the compound IV was diluted with water to prepare a water-diluted solution containing the predetermined amount of any one of compounds I to IV, and the similar controlling test was carried out. Further, for calculating an effective value, an onset area rate (ratio of onset area occupied in leaf area examined) in each treatment group was determined. The effective value was calculated by the Equation 1. […] A: Onset area rate of non-treated group B: Onset area rate of treated group In general, a effective value expected in treatment by mixing given two kinds of active ingredient compounds, i.e., an expected effective value is calculated by a Colby calculation equation of the Equation 2. E=X+Y−(X×Y)/100 “Equation 2” X: Effective value obtained by treatment with M ppm of the compound I Y: Effective value obtained by treatment with N ppm of the compound II, III or IV E: Effective value expected in treatment with M ppm of the compound I and N ppm of the compound II, III or IV (expected effective value) In addition, a synergistic effect was shown herein by a value calculated by the following Equation 3.

Setting [1] is: active ingredient concentration 3.1 ppm.

Regarding `Clc1ccc(C2(Cn3cncn3)CC(Br)CO2)c(Cl)c1` (stereo not drawn) [Compound III, 1-[(2RS,4RS:2RS,4SR)-4-bromo-2-(2,4-dichlorophenyl)tetrahydrofurfuryl]-1H-1,2,4-triazole], the Actual effective value under setting [1] is recorded as 1%.

As to `C=CCSC(=O)n1c(N)c(-c2ccccc2C)c(=O)n1C(C)C` [Compound I], under setting [1], the Actual effective value was found to be 58%. As to `Fc1ccc([C@]2(Cn3cncn3)O[C@H]2c2ccccc2Cl)cc1` (racemic) [Compound IV, (2RS,3SR)-1-[3-(2-chlorophenyl)-2,3-epoxy-2-(4-fluorophenyl)propyl]-1H-1,2,4-triazole], under setting [1], the Actual effective value amounted to 6%. With `CC1(C)CCC(Cc2ccc(Cl)cc2)C1(O)Cn1cncn1` (stereo not drawn) [Compound II, (1RS,5RS;1RS,5SR)-5-(4-chlorobenzyl)-2,2-dimethyl-1-(1H-1,2,4-triazol-1-ylmethyl)cyclopentanol], the Actual effective value is 0% (active ingredient concentration 0.8 ppm) and 5% under setting [1].
